Experimental data as given in patent EP1674457B1, “Derivatives of squaric acid with anti-proliferative activity” (GPC Biotech AG, priority 2004, dated 2006).
Where two headings read alike, the source gives them in different places.

What was measured:
[1] = tested on: A2780; test: SRB assay, inhibition of tumor cell growth at 1 µM (Example 61); format: cell-based, Human; details: 48 hours; for inhibition at 1 µM: Homo sapiens
Description: (§1) 3,000-15,000 cells/well were exposed to the test compounds at a concentration of 1 µM for 48 hours, and cytotoxicty was measured using the SRB assay according to Shekan et al (J Natl Cancer Inst (1990) 82, 1107-112). Briefly, cells were plated in 96 well dishes 24 hours prior to compound addition. The assay was terminated with the addition of cold TCA to a final concentration of 10% and the plates were incubated for one hour at 4°C. The plates were then washed 5 times with water and 100µl of a Sulforhodamine B solution (4%) was added to each well. The plate was then incubated for 10 minutes at room temperature before removal of unbound dye by washing with 1% acetic acid. The bound dye was solubilized with 10 mM Trizma base and the absorbance read at OD570. Inhibitory activity of the compounds was calculated as % inhibition compared to cells treated with the solvent (DMSO). Table 2 represents the growth inhibitory activity of certain compunds of the invention across a number of tumor cell lines.

[2] = tested on: A2780; test: IC50 determination by SRB assay (Example 62); format: cell-based; details: Homo sapiens
Description: as §1
(§2) The assay was performed similar to example 61. However, test compounds were added at various concentrations, such as from 0.001 to about 0.1 µM, from 0.1 to about 10 µM, or from 1 to about 10 µM, as the need may be, in order to estimate the IC50 values. IC50 values were determined by plotting the percentage inhibitory activity for each concentration, fitting a curve using appropriate software and estimating the concentration at which 50% inhibition of growth would occur.

[3] = tested on: SW-620; test: IC50 determination by SRB assay (Example 62); format: cell-based
Description: as §1, §2

[4] = tested on: MCF7; test: IC50 determination by SRB assay (Example 62); format: cell-based
Description: as §1, §2

[5] = tested on: HCT-116; test: IC50 determination by SRB assay (Example 62); format: cell-based; details: HCY-116
Description: as §1, §2

[6] = tested on: PC-3; test: SRB assay, inhibition of tumor cell growth at 1 µM (Example 61); format: cell-based; details: 48 hours; for inhibition at 1 µM: Homo sapiens
Description: as §1

[7] = tested on: A-549; test: as above; format: cell-based; details: for inhibition at 1 µM: Homo sapiens, A549, 48 hours; for % Inhibition (1 µM): 48 hours
Description: as §1

[8] = tested on: SW-620; test: as above; format: cell-based; details: 48 hours; for inhibition at 1 µM: Homo sapiens
Description: as §1

[9] = tested on: HCT-116; test: as above; format: cell-based; details: 48 hours; for inhibition at 1 µM: Homo sapiens
Description: as §1

[10] = tested on: MCF7; test: as above; format: cell-based; details: 48 hours; for inhibition at 1 µM: Homo sapiens
Description: as §1

[11] = tested on: PC-3; test: IC50 determination by SRB assay (Example 62); format: cell-based; details: Homo sapiens
Description: as §1, §2

Compound	IC50 [2]	IC50 ([3]; Homo sapiens)	IC50 ([4]; Homo sapiens)	IC50 ([5]; Homo sapiens, HCT-116)	IC50 [11]	IC50 [3]	IC50 [4]	IC50 [5]	inhibition at 1 µM [1]	inhibition at 1 µM [6]	inhibition at 1 µM [7]	inhibition at 1 µM [8]	inhibition at 1 µM [9]	inhibition at 1 µM [10]	% Inhibition (1 µM) [1]	% Inhibition (1 µM) [6]	% Inhibition (1 µM) [7]	% Inhibition (1 µM) [8]	% Inhibition (1 µM) [9]	% Inhibition (1 µM) [10]
N#Cc1ccc(OCCCCCCNc2c(Nc3ccncc3)c(=O)c2=O)cc1 [SQ-19, 4-{6-[3,4-Dioxo-2-(pyridin-4-ylamino)-cyclobut-1-enylamino]-hexyloxy}-benzonitrile]									> 50%	> 5%	> 0%	> 5%	> 5%							
O=c1c(NCCCCCOc2ccc(Cl)cc2)c(Nc2ccncc2)c1=O [SQ-8]		< 2000 nM	< 100 nM	< 100 nM					> 80%	> 50%	> 5%	> 20%	> 80%	> 80%						
O=c1c(NCCCCCCOc2ccc(Cl)cc2)c(Nc2ccncc2)c1=O [SQ-7B]	< 100 nM		< 100 nM	< 100 nM					> 80%	> 50%		> 50%	> 80%							
O=c1c(NCCCCCCCOc2ccc(Cl)cc2)c(Nc2ccncc2)c1=O [SQ-11A]		< 2000 nM	< 100 nM	< 100 nM					> 80%	> 20%	> 5%	> 50%	> 80%	> 80%						
3-[4-Phenoxybenzylamino]-4-(pyridin-4-yl-amino)-cyclobut-3-ene-1,2-dione [SQ-34]															>20%	>0%	0%	0%	>20%	
O=c1c(NCCCCCCOc2ccc(Cl)cc2)c(Nc2cccnc2)c1=O [SQ-1B]	< 100 nM	< 2000 nM	< 10 nM	< 20 nM					> 80%	> 50%	> 20%	> 20%	> 80%	> 80%						
3-[2-(4-Phenoxyphenyl)-ethylamino]-4-(pyridin-3-yl-amino)-cyclobut-3-ene-1,2-dione [SQ-5]						< 2000 nM	< 10000 nM	< 100 nM							>80%	>50%		0%	>80%	>50%
O=c1c(NCc2cccc(Oc3ccc(Cl)cc3)c2)c(Nc2cccnc2)c1=O [SQ-33, 3-[3-(4-Chlorophenoxy)-benzylamino]-4-(pyridin-3-yl-amino)-cyclobut-3-ene-1,2-dione]									> 20%	0%	0%	> 5%	> 50%	0%						
3-[6-(3,4-Dichlorophenoxy)-hexylamino)]-4-(pyridin-4yl-amino)-3-cyclobutene-1,2-dione [SQ-15]						< 500 nM		< 100 nM							>80%	>50%	>20%	>20%	>80%	>20%
O=c1c(NCCCCOc2ccc(Cl)cc2)c(Nc2ccncc2)c1=O [SQ-10]		< 10000 nM	< 2000 nM	< 2000 nM					> 50%		0%	> 20%	> 50%	> 50%						
O=c1c(NCCCCCCCOc2ccccc2)c(Nc2ccncc2)c1=O [SQ-11B, 3-(7-Phenoxyheptylamino)-4-(pyridin-4yl-amino)-3-cyclobutene-1,2-dione]		< 500 nM	< 20 nM	< 20 nM					> 80%	> 50%	> 50%	> 50%	> 80%	> 80%						
O=c1c(NCCCCCCCCOc2ccc(Cl)cc2)c(Nc2ccncc2)c1=O [SQ-9]		< 2000 nM	< 500 nM						> 80%	> 50%	> 5%	> 50%	> 80%	> 80%						
O=c1c(NCCCCCOc2ccc(Cl)cc2)c(Nc2cccnc2)c1=O [SQ-2]	< 20 nM	< 10000 nM	< 20 nM	< 20 nM					> 80%	> 50%	> 50%	> 50%	> 80%	> 80%						

Second part, led by results:

IC50 [2]	IC50 ([3]; Homo sapiens)	IC50 ([4]; Homo sapiens)	IC50 ([5]; Homo sapiens, HCT-116)	IC50 [11]	IC50 [3]	IC50 [4]	IC50 [5]	Compound	inhibition at 1 µM [1]	inhibition at 1 µM [6]	inhibition at 1 µM [7]	inhibition at 1 µM [8]	inhibition at 1 µM [9]	inhibition at 1 µM [10]	% Inhibition (1 µM) [1]	% Inhibition (1 µM) [6]	% Inhibition (1 µM) [7]	% Inhibition (1 µM) [8]	% Inhibition (1 µM) [9]	% Inhibition (1 µM) [10]
< 100 nM	< 500 nM	< 10000 nM	< 20 nM					O=c1c(NCCc2ccc(Oc3ccccc3)cc2)c(Nc2ccncc2)c1=O [SQ-17, 3-[2-(4-Phenoxyphenyl)-ethylamino]-4-(pyridin-4-yl-amino)-cyclobut-3-ene-1,2-dione]	> 80%	> 50%	> 50%	> 20%	> 80%							
	< 2000 nM		< 100 nM					Cc1ccc(OCCCCCCNc2c(Nc3ccncc3)c(=O)c2=O)cc1 [SQ-13]	> 80%	> 50%	> 20%	> 20%	> 80%	> 5%						
	> 10000 nM	< 500 nM	< 2000 nM					O=c1c(NCc2ccc(Oc3ccc(Cl)cc3)cc2)c(Nc2cccnc2)c1=O [SQ-30, 3-[4-(4-Chlorophenoxy)-benzylamino]-4-(pyridin-3-yl-amino)-cyclobut-3-ene-1,2-dione]	> 80%	> 20%	> 50%	> 20%	> 80%	> 80%						
< 100 nM	> 10000 nM	> 10000 nM	< 100 nM					O=c1c(NCc2ccc(COc3ccc(Cl)cc3)cc2)c(Nc2cccnc2)c1=O [SQ-32, 3-[4-(4-Chlorophenoxymethyl)-benzylamino]-4-(pyridin-3-yl-amino)-cyclobut-3-ene-1,2-dione]	> 80%	> 50%	> 20%	> 5%	> 80%	> 20%						
< 20 nM			< 100 nM	< 500 nM				O=c1c(NCCc2ccc(Oc3ccc(Cl)cc3)cc2)c(Nc2ccncc2)c1=O [SQ-20, 3-{2-[4-(4-Chlorophenoxy)-phenyl]-ethylamino}-4-(pyridin-4-yl-amino)-cyclobut-3-ene-1,2-dione]												
	< 2000 nM		< 100 nM					COc1ccc(OCCCCCCNc2c(Nc3ccncc3)c(=O)c2=O)cc1 [SQ-14]	> 80%	> 50%	> 20%	> 20%	> 80%	> 5%						
	< 2000 nM		< 100 nM					O=c1c(NCCCCCCNc2ccc(Cl)cc2)c(Nc2cccnc2)c1=O [SQ-26, 3-[6-(4-Chlorophenylamino)-hexylamino]-4-(pyridin-3-yl-amino)-cyclobut-3-ene-1,2-dione]	> 80%	> 50%	> 50%	> 20%	> 80%	> 5%						
< 10000 nM			< 10000 nM	< 10000 nM				O=c1c(NCCC2CCN(Cc3ccccc3)CC2)c(Nc2ccncc2)c1=O [SQ-38, 3-[2-(1-Benzylpiperidin-4-yl)-ethylamino]-4-(pyridin4-yl-amino)-cyclobut-3-ene-1,2-dione]												
	< 2000 nM	< 10000 nM						O=c1c(NCCCCCCOc2ccc(C(F)(F)F)cc2)c(Nc2ccncc2)c1=O [SQ-18, 3-[6-(4-Trifluoromethylphenoxy)-hexylamino]-4-(pyridin-4-yl-amino)-cyclobut-3-ene-1,2-dione]	> 80%	> 50%	> 20%	> 20%	> 80%							
	< 2000 nM		< 500 nM					O=c1c(NCCCCCCNc2ccc(Cl)cc2)c(Nc2ccncc2)c1=O [SQ-25, 3-[6-(4-Chlorophenylamino)-hexylamino]-4-(pyridin-4-yl-amino)-cyclobut-3-ene-1,2-dione]	> 80%	> 50%	> 20%	> 20%	> 80%	> 5%						
